In patent US20240252668A1, “ANTIBODY DRUG CONJUGATES AND METHODS FOR MAKING THEREOF” (Novartis AG, priority 2021, published 2024):
Read-outs that look alike come from different tables or passages of the source. Starred links: 1 amine or outer side, 2 acyl side, 3 side chain; linkers in the order of their positions; H or OH if unused. Positions of bridges follow the written chain, without caps; N, C: chain ends. Non-standard residues stand in square brackets, D forms with d. Residues, ends and D or L forms follow the SMILES beside them. *: point of attachment. Leu(3R-OH,Nα-propionyl) = CCC(=O)N[C@H](C(=O)*)[C@H](O)C(C)C; X1 = CC(C)[C@@H](O[*:3])[C@H](N[*:1])C(=O)[*:2]; NMeT = CN[C@H](C(=O)O)[C@@H](C)O; dPhLac = O=C(O)[C@H](O)Cc1ccccc1; NMeA = CN[C@@H](C)C(=O)O; NMeDha = C=C(NC)C(=O)O

Columns and labels:
[1] = system: 92.1 uveal melanoma cell line (heterozygous GNAQ Q209L); assay: Cell proliferation assay (resazurin cell viability), 92.1 cell line; format: cell-based
Summary of the method: (§1)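 Cells seeded the night before, then treated 96 h at 37 °C in RPMI/10% FCS (A375 in DMEM/10% FCS); compounds 260 nM to 0.036 nM in ⅓ dilution steps, one compound 10000 nM to 1.52 nM. Viability read by resazurin addition after 96 h.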

[2] = system: MP41 uveal melanoma cell line (heterozygous GNA11 Q209L); assay: Cell proliferation assay (resazurin cell viability), MP41 cell line; format: cell-based
Summary of the method: as §1

[3] = system: A375 skin melanoma cell line (homozygous BRAF V600E); assay: Cell proliferation assay (resazurin cell viability), A375 cell line; format: cell-based; details: Homo sapiens, A-375
Summary of the method: as §1

[4] = system: SK-MEL-30 skin melanoma cell line (heterozygous NRAS Q61K); assay: Cell proliferation assay (resazurin cell viability), SK-MEL-30 cell line; format: cell-based; details: Homo sapiens
Summary of the method: as §1

[5] = Plasma incubation of compound (A1), human plasma, LC-MS/MS quantification; format: in vitro ADME; details: human plasma, 37° C.
Method: (§2) Plasma incubations and sample preparation: Compound (A1) was spiked at 5.00 μg/mL in PBS and pooled mixed gender mouse (CD-1), cynomolgus monkey and human plasma. Samples were incubated on a Thermomixer (Eppendorf) at 37° C. while shaking at 650 rpm. Aliquots of 50 μL (n=3) were drawn from each incubation tube following 0, 0.5, 1, 2, 4, 8 and 24 h of incubation. 50 μL of sample was quenched with 200 μL of acetonitrile, containing both generic internal standards, glybenclamide and warfarin, at 62.5 ng/mL. Samples were briefly vortexed and centrifuged for 20 min at 4000 rpm and 4° C. 200 μL of the supernatant was transferred into a clean 800 μL 96-well sample collection plate.
Quantification by LC-MS/MS: LC-MS/MS analysis was conducted with a Shimadzu Nexera UPLC coupled to AB Sciex QTRAP 6500 using the SRM acquisition mode (3 μL injected). Samples were analyzed using a ACE 3° C.18-PFP (3 μM, 2.1×50 mm column) at a column temperature of 65° C. The starting conditions were 97% H20 containing 0.1% formic acid and 3% CH3CN containing 0.1% formic acid. Quantification of compound (A1) and 5 was performed by MS-MRM (electrospray in positive mode, ion spray voltage: 5000 V, source temperature: 500° C., curtain gas: 25 psig, nebulizer gas: 60 psig, turbo ion spray gas: 40 psig, mass range: low, resolution Q1/Q3: unit, collision gas: medium, dwell time: 12 msec). Separate calibration curves were established with calibration standards of compounds (A1) and 5 at concentrations of 10.0, 5.00, 2.50, 1.00, 0.500, 0.100, 0.050 and 0.010 μg/mL respectively. Peak integration and quantification was conducted with the AB Sciex Analyst software (v.1.7) using the Analyst Classic algorithm. […]

[6] = Plasma incubation of compound (A1), mouse (CD-1) plasma; format: in vitro ADME
Method: as §2
Quantification by LC-MS/MS: LC-MS/MS analysis was conducted with a Shimadzu Nexera UPLC coupled to AB Sciex QTRAP 6500 using the SRM acquisition mode (3 μL injected). Samples were analyzed using a ACE 3° C.18-PFP (3 μM, 2.1×50 mm column) at a column temperature of 65° C. […] Quantification of compound (A1) and 5 was performed by MS-MRM (electrospray in positive mode, ion spray voltage: 5000 V, source temperature: 500° C., curtain gas: 25 psig, nebulizer gas: 60 psig, turbo ion spray gas: 40 psig, mass range: low, resolution Q1/Q3: unit, collision gas: medium, dwell time: 12 msec). […] Peak integration and quantification was conducted with the AB Sciex Analyst software (v.1.7) using the Analyst Classic algorithm.

For `C=C1C(=O)N[C@@H](C)C(=O)N(C)[C@@H](C)C(=O)N[C@@H]([C@H](OC(=O)[C@@H](NC(=O)CC)[C@H](O)C(C)C)C(C)C)C(=O)N(C)[C@@H]([C@@H](C)OC)C(=O)O[C@H](C(C)C)[C@H](NC(C)=O)C(=O)O[C@H](Cc2ccccc2)C(=O)N1C` [Compound (A1), FR900359] (Ac-[X1][dPhLac][NMeDha]A[NMeA][X1](Leu(3R-OH,Nα-propionyl))[NMeT](Me); ester 1-C), the GI50 ([1]; 92.1 (GNAQ Q209L), 96 hours of treatment, read-out: GI50 by cell line, 92.1) was 0.6 nM, the GI50 ([1]; 92.1 cell line, average of Rep. 1 and 2, read-out: GI50 92.1 Average) was 0.6 nM and the GI50 ([1]; 92.1 cell line, replicate 1, read-out: GI50 92.1 Rep. 1) was 0.46 nM. The GI50 ([1]; 92.1 cell line, replicate 2, read-out: GI50 92.1 Rep. 2) was 0.69 nM, the GI50 ([2]; MP41 (GNA11 Q209L), 96 hours of treatment, read-out: GI50 by cell line, MP41) was 0.2 nM and the GI50 ([2]; MP41 cell line, average of Rep. 1 and 2, read-out: GI50 MP41 Average) was 0.2 nM. For the same compound, the GI50 ([2]; MP41 cell line, replicate 1, read-out: GI50 MP41 Rep. 1) was 0.22 nM, the GI50 ([2]; MP41 cell line, replicate 2, read-out: GI50 MP41 Rep. 2) was 0.27 nM and the GI50 ([3]; A375 (GNAQ/11 wild type), 96 hours of treatment, read-out: GI50 by cell line, A375) was > 260 nM. For the same compound, the GI50 ([3]; A375 cell line, average of Rep. 1 and 2, read-out: GI50 A375 Average) was > 260 nM, the GI50 ([3]; A375 cell line, replicate 1, read-out: GI50 A375 Rep. 1) was > 260 nM and the GI50 ([3]; A375 cell line, replicate 2, read-out: GI50 A375 Rep. 2) was > 260 nM. The GI50 ([4]; SK-MEL-30 (GNAQ/11 wild type), 96 hours of treatment, read-out: GI50 by cell line, SK-MEL-30) was > 260 nM, the GI50 ([4]; SK-MEL-30 cell line, average of Rep. 1 and 2, read-out: GI50 SK-MEL-30 Average) was > 260 nM and the GI50 ([4]; SK-MEL-30 cell line, replicate 1, read-out: GI50 SK-MEL-30 Rep. 1) was > 260 nM. For the same compound, the GI50 ([4]; SK-MEL-30 cell line, replicate 2, read-out: GI50 SK-MEL-30 Rep. 2) was > 260 nM, the “Concentration of (A1), Aliquot 1” value ([5]; 0 h) was 4.62 µg/mL and the “Concentration of (A1), Aliquot 2” value ([5]; 0 h) was 4.35 µg/mL. For the same compound, the “Concentration of (A1), Aliquot 3” value ([5]; 0 h) was 4.75 µg/mL, the “Mean concentration of (A1)” value ([5]; 0 h) was 4.57 µg/mL and the “Concentration of (A1), Aliquot 1” value ([5]; 0.5 h) was 5.15 µg/mL. The “Concentration of (A1), Aliquot 2” value ([5]; 0.5 h) was 5.10 µg/mL, the “Concentration of (A1), Aliquot 3” value ([5]; 0.5 h) was 5.10 µg/mL and the “Mean concentration of (A1)” value ([5]; 0.5 h) was 5.12 µg/mL. For the same compound, the “Concentration of (A1), Aliquot 1” value ([5]; 1 h) was 4.98 µg/mL, the “Concentration of (A1), Aliquot 2” value ([5]; 1 h) was 4.58 µg/mL and the “Concentration of (A1), Aliquot 3” value ([5]; 1 h) was 5.02 µg/mL. For the same compound, the “Mean concentration of (A1)” value ([5]; 1 h) was 4.86 µg/mL, the “Concentration of (A1), Aliquot 1” value ([5]; 2 h) was 4.79 µg/mL and the “Concentration of (A1), Aliquot 2” value ([5]; 2 h) was 5.13 µg/mL. The “Concentration of (A1), Aliquot 3” value ([5]; 2 h) was 4.68 µg/mL, the “Mean concentration of (A1)” value ([5]; 2 h) was 4.87 µg/mL and the “Concentration of (A1), Aliquot 1” value ([5]; 4 h) was 4.14 µg/mL. For the same compound, the “Concentration of (A1), Aliquot 2” value ([5]; 4 h) was 4.35 µg/mL, the “Concentration of (A1), Aliquot 3” value ([5]; 4 h) was 4.35 µg/mL and the “Mean concentration of (A1)” value ([5]; 4 h) was 4.28 µg/mL. For the same compound, the “Concentration of (A1), Aliquot 1” value ([5]; 8 h) was 3.26 µg/mL, the “Concentration of (A1), Aliquot 2” value ([5]; 8 h) was 3.66 µg/mL and the “Concentration of (A1), Aliquot 3” value ([5]; 8 h) was 3.60 µg/mL. The “Mean concentration of (A1)” value ([5]; 8 h) was 3.51 µg/mL, the “Concentration of (A1), Aliquot 1” value ([5]; 24 h) was 1.35 µg/mL and the “Concentration of (A1), Aliquot 2” value ([5]; 24 h) was 1.43 µg/mL. For the same compound, the “Concentration of (A1), Aliquot 3” value ([5]; 24 h) was 1.29 µg/mL, the “Mean concentration of (A1)” value ([5]; 24 h) was 1.36 µg/mL and the “plasma stability / metabolite formation compared with human plasma” value [6] was “Very similar results”.
